Key:
[1] = cited from earlier work
[2] = test system: Male Sprague Dawley rats; assay: Forced Swim Test (FST); format: in vivo, rat
From the text: The Forced Swim Test (FST) is a classic, and the most used preclinical behavioral assay to screen compounds with antidepressant-like activity and has high predictive and face validity (Porsolt et al. (1977) Nature 266:730; Borsini and Meli (1988) Psychopharmacology 94:147). The premise of the FST is that when rats are placed into a cylinder filled with water, they will initially try to escape, but over time will become immobile. This increased immobility reflects behavioral despair, modeling a depressive-like state.
Forced Swim Test (FST): In the FST trial, rats were placed in a circular plexiglass container filled with water, with no means of escape. Water temperature was maintained at 22-25° C. and changed for every animal. After an acclimation period, rats were timed for inactivity (failure to struggle), activity, swim time and climbing time. Day 1 consisted of a 15 min acclimation trial, and Day 2 (24 h later) consisted of the 5 min test. A time sampling procedure was employed where animals were observed every 5 sec and scored for immobility, swimming, or climbing. Fluoxetine (10 mg/kg, IP, Sigma Aldrich) or 0.9% sterile saline vehicle (vehicle 3× group) were administered 23.5, 5, and 1 h before testing in the FST. […] The experimenter was blinded to treatment.
Forced Swim Test: In the FST trial, rats were placed in a circular plexiglass container filled with water, with no means of escape. Water temperature was maintained at 22-25° C. and changed for every animal. After an acclimation period, rats were timed for inactivity (failure to struggle), activity, swim time and climbing time. Day 1 consisted of a 15 min acclimation trial, and Day 2 (24 h later) consisted of the 5 min test. A time sampling procedure was employed where animals were observed every 5 sec and scored for immobility, swimming, or climbing. Fluoxetine (10 mg/kg, IP, Sigma Aldrich) or 0.9% sterile saline vehicle (vehicle 3× group) were administered 23.5, 5, and 1 h before testing in the FST. 2C-B (2.5, 10, or 20 mg/kg, IP, Cayman Chemical) or 0.9% saline vehicle (vehicle 1× group) were administered 30 min prior to FST testing. The experimenter was blinded to treatment.
Drug Treatment: Fluoxetine (10 mg/kg, IP, Sigma Aldrich) or 0.9% sterile saline vehicle were administered 23.5, 5, and 1 h before testing in the FST. […] Control animals received fluoxetine alone, methylone alone, or saline vehicle.
Forced Swim Test: In the FST trial, rats were placed in a circular plexiglass container filled with water, with no means of escape. Water temperature was maintained at 22-25° C. and changed for every animal. After an acclimation period, rats were timed for inactivity (failure to struggle), activity, swim time and climbing time. The experimenter and scorer were blind to treatment group. Day 1 consisted of a 15 min acclimation trial, and Day 2 (24 h later) consisted of the 5 min test. A time sampling procedure was employed where animals were observed every 5 sec and scored for immobility, swimming, or climbing.
Control animals received saline vehicle. The dosing schedule and experimental design are found in FIG. 12A.
The FST was performed and scored by an experimenter blind to treatment group according to standard protocols and based on a “modified FST” procedure (Slattery and Cryan (2012) Nat Protoc, 7:1009). Briefly, rats were placed in a circular plexiglass container (29.2 cm diameter, 49.5 cm height) filled with water to a depth of 30 cm so rats could not support themselves by touching the bottom of the tank. Water was maintained at 22-25° C. and was changed for every animal. Day 1 (Training) consisted of a 15 min acclimation trial, and Day 2 (Testing, 24 h later) consisted of the 5 min test. […]

SMILES: CNC(C)C(=O)c1ccc2c(c1)OCO2 (stereo not drawn) [methylone, 3,4-methylenedioxy-N-methylcathinone]
- time to peak brain and serum concentration ([1]; rats, intraperitoneal administration): 15 to 30 min
- half-life shorter than MDMA ([1]; relative to MDMA): > 50%
- climbing behavior (FST) ([2]; Example 8): significantly increased climbing behavior
- effectiveness in the FST ([2]; doses of 10 mg/kg or more): maximally effective
- antidepressant-like effect (FST), multiple lower doses ([2]; four […] IP doses 20.5, 8.5, 4.5 and 0.5 hours before testing): significant antidepressant-like effects
- climbing (FST) ([2]; methylone IP dose range, 30 min before testing): only increased at the lowest dose
- swimming (FST) ([2]; mid and high doses of methylone IP, 30 min before testing): significantly increased swimming
- antidepressant-like effect (FST) vs. vehicle ([2]; single dose 15 mg/kg PO, 2 hours before testing): significant antidepressant-like effect
- immobility (FST) vs. saline vehicle ([2]; single dose 5, 10, 15, 20 and 30 mg/kg IP, 30 min before testing): significantly reduced immobility
